Values quoted from earlier work in patent EP1750675B1, “STABLE ORAL PHARMACEUTICAL COMPOSITIONS OF BUP[…] SALT THEREOF” (Galephar M/F, priority 2004, dated 2005).
Structures can show the parent of a compound that is named as a salt. Where two headings read alike, the source gives them in different places.

Columns and labels:
[1] = opioid agonist/antagonist
[2] = 20°C

Compound | potency relative to morphine [1] | solubility ([2]; in cyclohexane) | solubility ([2]; in ethanol) | solubility ([2]; in glacial acetic acid) | solubility ([2]; in water) | stability (at high temperatures (up to 120°C)) | stability (in acid and alkaline conditions) | stability (in neutral solutions (pH 5-7))
CO[C@]12CC[C@@]3(C[C@@H]1[C@](C)(O)C(C)(C)C)[C@H]1Cc4ccc(O)c5c4[C@@]3(CCN1CC1CC1)[C@H]2O5 [Buprenorphine] | about forty times as potent as morphine |  |  |  |  |  |  | 
CO[C@]12CC[C@@]3(C[C@@H]1[C@](C)(O)C(C)(C)C)[C@H]1Cc4ccc(O)c5c4[C@@]3(CCN1CC1CC1)[C@H]2O5 [buprenorphine hydrochloride, Buprenorphine hydrochloride] |  | ~0.02 mg/mL | ~42 mg/mL | more than 500 mg/ml | about 20 mg/ml | stable | significant degradation | stable
